Where two headings read alike, the source gives them in different places.
How the values were obtained:
[1] = biological target: T1, HDAC complex (Homo sapiens, UniProt Q09028); experiment: Fluorescent polarization competitive binding in SNU-398 nuclear extracts; details: unlabeled peptide competing with FITC-labeled peptide
T1 construct: endogenous in cells; host or cells: SNU-398 nuclear extract
Protocol: Below are the amino acid sequences of the peptides used in this study. In the mutant peptide (mut), Lys 5 is replaced with an alanine residue. […] In the first lane marked “Input”, 10% of the extracts were subjected to western blot analysis without immunoprecipitation. […] Extracts were subsequently immunoprecipitated with anti-FITC antibody and the complexes pulled down were subjected to an HDAC activity assay as described in the methods. TSA was added at a concentration of 100 nM. Input is the sample in which 10% of the extract was assayed for HDAC activity without the immunoprecipitation step. […] Competitive binding of nonlabeled wild type or scrambled peptides was measured by fluorescent polarization. […] The fluorescent polarization (y axis) is decreased if the FITC-labeled peptide is displaced from a larger complex.
Next tested was the binding affinity of the wild type and scrambled peptides to the HDAC complex. For this, Fluorescent Polarization (FP), a technology based on molecular movement and rotation in which fluorescent molecules are excited with polarized light, was used. If the fluorescent molecules are part of a large complex, they rotate less and the emitted light has high polarity. In contrast, smaller molecules rotate faster and have low polarity (“depolarized”). […] Using this approach, FITC-labeled wild type or scrambled peptides were first mixed with nuclear extracts from SNU-398 cells. Serial dilutions of unlabeled wild type or scrambled peptides were then added as competitors respectively, and measured by FP assay.

[2] = tested on: primary human AML cells; experiment: Xenotransplantation of peptide-treated primary human AML cells into NSG mice; assay type: in vivo; details: 11 weeks after transplantation, cells treated with Pep-1 plus peptide
Protocol: FIGS. 12A-12F: Treatment of SALL4 peptide in primary human AML cells induces reduced cell viability in culture and impaired leukemic engraftment in vivo. (12A) Wild type peptide treatment reduces cell viability of human AML cells in culture, and this effect can be reversed in part by the PTEN inhibitor SF1670. 1×10^6 AML cells were treated with nothing (None), Pep-1 alone (Mock), or 20 μM wild type (wt), or scrambled peptide (scr), or wt peptide with 400 nM PTEN inhibitor SF1670 (wt+inh) or with 100 nM TSA for 48 hours, as described in the Methods. Cell viability of untreated primary AML cells is set as 100. […] Percentage of human CD45+ cells engrafted in BM, spleen (SP) and peripheral blood (PB) was determined by flow cytometry. […]
NSG (NOD.Cg-Prkdcscid Il2rgtm 1Wjl/SzJ, The Jackson Laboratory, ME, USA) mice were bred and maintained in the Children's Hospital Boston animal facility. […] The percentage of human CD45+ cells was calculated as follows: % human CD45+ cells=No. human CD45+ cells/(No. human CD45+ cells+No. mouse CD45+ cells)×100. […]
Subsequently tested was the ability of peptide treatment to inhibit the development of AML in vivo utilizing xenografts. […] In addition, the engraftment of human CD45+ cells was evaluated by flow cytometry (FIG. 12E). […]

[3] = tested on: KBM5 cells; experiment: MTS cell viability assay; assay type: cell-based; details: KBM5 (no SALL4), 72 h
Protocol: (§1) Multiple leukemic and solid tumor cancer cell lines with high or low/no SALL4 expression (FIG. 10A) were chosen to test the biological effect(s) of the wild type peptide. Wild type or scrambled peptide was delivered into tumor cells at various concentrations, and their effects on cells were evaluated 72 hours post-treatment by the MTS cell viability assay. […] The effect of wild type peptide is SALL4-specific, as it had no effect on KBM5, an AML cell line with undetectable endogenous SALL4 expression. We were surprised to see that the wild type peptide had no effect on a high SALL4-expressing endometrioid cancer cell line, AN3CA. This prompted checking whether PTEN, a gene repressed by SALL4 through its interaction with NuRD 27, was present in this cell line. According to the model herein, the function of wild type peptide requires both the expression of SALL4 and intact SALL4 downstream target genes, such as PTEN. In tumor cells with PTEN deletion, even though wild type peptide could compete with endogenous SALL4 in interacting with the HDAC complex, an anti-proliferative effect might not be observed. Therefore, expression of PTEN was evaluated in AN3CA cells along with other cell lines. While PTEN protein was present in all the other cell lines, it was absent in AN3CA cells (FIG. 10C), with reported deletion mutation of the gene in this cell line 40,41. […] Furthermore, the anti-proliferative effect also required certain downstream targets, such as PTEN.
(§2) To further test whether the effect of wild type peptide on tumor cells is related to PTEN, a PTEN inhibitor (SF1670) was used (Li et al., Blood, 117:6702-6713). […] As a control for the specificity of SALL4, KBM5, a non-SALL4-expressing cell line was also treated with PTEN inhibitor.

[4] = tested on: THP1 cells; experiment: MTS cell viability assay; assay type: cell-based; details: THP1, 72 h
Protocol: as §1, §2

T1 sequence (Q09028 whole entry, one chain of several): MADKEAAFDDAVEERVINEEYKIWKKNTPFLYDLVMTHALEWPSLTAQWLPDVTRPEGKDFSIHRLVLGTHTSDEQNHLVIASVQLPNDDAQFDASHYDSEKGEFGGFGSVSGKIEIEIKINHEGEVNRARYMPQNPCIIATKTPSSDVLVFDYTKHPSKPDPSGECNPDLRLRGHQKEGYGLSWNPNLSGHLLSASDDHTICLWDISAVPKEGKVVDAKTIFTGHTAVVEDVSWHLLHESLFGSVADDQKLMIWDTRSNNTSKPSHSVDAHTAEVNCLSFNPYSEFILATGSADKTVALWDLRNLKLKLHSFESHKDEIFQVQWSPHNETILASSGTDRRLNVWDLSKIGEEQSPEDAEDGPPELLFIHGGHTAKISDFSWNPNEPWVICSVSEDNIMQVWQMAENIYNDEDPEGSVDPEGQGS

Row | Substance | IC50 ([1]; read-out: IC50) | average engraftment of human CD45+ cells in bone marrow [2] | cell viability ([3]; listed as wild type) | cell viability ([3]; listed as wild type peptide) | cell viability [4] | IC50 [1] | cell viability [3]
1 | H-MSRRKQAKPQHI-OH [wt peptide, MSRRKQAKPQHI] | 5 µM | 0.5% | no change in cell viability | had no effect | decreased cell viability | – | –
2 | Scr peptide: same 12 amino acids as the wt peptide, but in a scrambled sequence; negative control (SRMRQKIHPKIQ) [reference compound] | – | greater than 74% | – | – | remained unaffected | could not be calculated due to the lack of binding activity | no change in cell viability
